Ends that are not written are not given here.
Tests used:
Assay type in all cases: cell-based
Human dermal fibroblasts = assay: SIRCOL collagen assay: soluble collagen released by dermal fibroblasts incubated with peptides; conditions: for Collagen / Collagen (μg): * = may not be significant, detection limit 2.5 μg
Description: Several sequences identified in Examples 1 and 2 were synthesized using standard peptide chemistry and assayed for the stimulation of collagen from dermal fibroblasts. The synthesized peptides were amidated at the C-terminus, which rendered the tetrapeptides less susceptible to protease degradation and increased their solubility compared to the free acid forms. Human dermal fibroblasts were incubated in 96-well plates at 37° C. and 5% CO2 for 24 and 48 hours in 150 μL complete cell culture media (Cascade Biologics, Portland, Oreg.; Cat. No. M-106-500), supplemented with Low Serum Growth Supplement (Cascade Biologics, Portland, Oreg.; Cat. No. […] Each well was seeded with 10,000 cells. Following the incubation, 100-μL medium samples were recovered from each well and assayed for collagen production
The assays were performed by Tebu-bio Laboratories (France) using the SIRCOL™ Collagen Assay Kit (Biocolor Assays, UK) following the manufacturer's protocol. The SIRCOL™ Collagen Assay is a quantitative dye-binding method designed for the analysis of soluble collagens released into culture medium by mammalian cells during in vitro culture. The collagen of the tested samples binds to the anionic SIRCOL™ dye. The collagen-dye complexes precipitate out of solution and are pelleted by centrifugation. The recovered collagen-dye pellet was dissolved in an alkaline solution prior to absorbance measurements. Duplicate measurements were taken at the 24 and 48 hour times from two separate samples. The four measurements for each sample were averaged. The absorbance of reagent blanks, collagen standards, and samples were measured at 560 nm. The reagent blank absorbance was subtracted from the absorbance from each sample at 24 and 48 hours.
Two separate data sets were used to generate two collagen standard calibration curves. The first calibration curve was generated for purposes of calculating the quantity of collagen in samples H6 (combination of SEQ ID NOs:1-4), […] (SEQ ID NOs:1-8, respectively) and H15 (combination of SEQ ID NOs:5-8). The second calibration curve was generated for calculating the quantity of collagen in samples H16 (SEQ ID NO:9), H21-23 (SEQ ID NOs:10-12, respectively), H25-26 (SEQ ID NOs:13-14, respectively), or H29-30 (SEQ ID NOs:15-16, respectively), H32 (SEQ ID NO:17), H33 (combination of SEQ ID NOs:9-12), H34 (combination of SEQ ID NOs:11-14), H35 (combination of SEQ ID NOs:13-16), H36 (combination of SEQ ID NOs:1, 6, 5, 8), H37 (SEQ ID NO: 17) and H38 (SEQ ID NO:8) from the absorbance measurements was created by plotting the Abs560nm of the known collagen standards versus the respective concentrations of the collagen standards (in micrograms) each time a series of assays were performed. With respect to each data set, the same calibration curve was used for samples taken at the 24 and 48 hour times (Tables 2A and 2B). Accordingly, different standard curves were prepared immediately prior to performing each series of assays.
A linear regression was performed from plotting the Abs560nm values versus concentrations of the respective collagen standards using MICROSOFT EXCEL™. […] As the results were identical, only the 24-hour time period was used for the second series calibration curves. The formula of the line obtained on assay date 1 and assay date 2 of the second series of samples was y=0.0178x and y=0.0162x, respectively. The peptide LL-37 (SEQ ID NO:18) was used as a positive control as it has been widely reported to have an impact upon wound healing in man (Heilborn et al., The Cathelicidin Anti-Microbial Peptide LL-37 Is Involved In The Re-Epithelialization Of Human Skin Wounds And Is Lacking In Chronic Ulcer Epithelium, J. Invest. Dermato. 120:379-89 (2003). The assay detection limit defined by the manufacturer is 2.5 μg. […]

[1] = system: human skin epithelial cells (CRL-2592); assay: In vitro scratch wound closure of skin epithelial cell monolayer; conditions: for W-size (wound size) 0 hr: prior to peptide treatment; for W-size (wound size) 6 hr / % closure 6 hr / W-size (wound size) 10 hr / % closure 10 hr: peptide 20 to 40 μg/ml; for % closure 6 hr: PBS controls 19.40%, 19.20%; for % closure 10 hr: PBS controls 41.70%, 42.30%; for wound closure compared to PBS alone (in words): epithelial cell monolayer
Description: Wound healing experiments were performed on monolayers of human skin epithelial cells (CRL-2592) plated onto 12-well plates. Cells were serum-starved for 24 hours before experimentation. Confluent monolayers of CRL-2592 were wounded using a P200 (200-μL) pipette tip. The wounds were washed and picture-documented prior to peptide treatment. Peptides were added to a final concentration from 20 to 40 μg/ml. Cells were kept in an incubator at 37° C., 5% CO2, and 92% humidity, except when images were being captured for a short period at room temperature. Wound closure was followed at 6-hour and 10-hour time points. PBS-treated wounds were used as negative controls for comparison purposes.

[2] = system: human skin fibroblast monolayer; assay: Wound closure in skin fibroblast monolayer (data not shown)
Description: In vitro monolayer wound closure is a result of cell migration, which is important in many biological processes such as embryogenesis, angiogenesis, inflammatory reactions and wound repair. These processes are thought to be regulated by interactions with other cells, cytokines and ECM proteins.

[3] = check mark = yes, peptide 50 μg/mL
[4] = 24 hours, peptide 50 μg/mL, second series
[5] = 48 hours, peptide 50 μg/mL, second series
[6] = peptide 0.3 μg/mL (per Table 5)
[7] = 24 hours, peptide 0.3 μg/mL, second series
[8] = 48 hours, peptide 0.3 μg/mL, second series

Row | Substance | Released collagen (μg/mL) 24 h (Human dermal fibroblasts; peptide 50 μg/mL (per Table 5)) [µg/mL] | Collagen produced (μg/mL) 24 hrs (Human dermal fibroblasts; [Peptide] 50 μg/mL) [µg/mL] | Released collagen (μg/mL) 48 h (Human dermal fibroblasts; peptide 50 μg/mL (per Table 5)) [µg/mL] | Collagen produced (μg/mL) 48 hrs (Human dermal fibroblasts; [Peptide] 50 μg/mL) [µg/mL] | Decrease in collagen release at 48 h v. 24 h (Human dermal fibroblasts; [3]) | W-size (wound size) 0 hr [1] [arbitrary] | W-size (wound size) 6 hr [1] [arbitrary] | % closure 6 hr [1] [%] | W-size (wound size) 10 hr [1] [arbitrary] | % closure 10 hr [1] [%] | wound closure compared to PBS alone (in words) [1] | Average (A560 nm) (Human dermal fibroblasts; [4]) | Average minus blank (A560 nm) (Human dermal fibroblasts; [4]) | Collagen (Human dermal fibroblasts; [4]) [µg] | Average (A560 nm) (Human dermal fibroblasts; [5]) | Average minus blank (A560 nm) (Human dermal fibroblasts; [5]) | Collagen (μg) (Human dermal fibroblasts; [5]) | Collagen (μg) (Human dermal fibroblasts; [4]) | also measured
1 | GEPG (Synthetic Peptide H11) | 45 | 45 | 21 | 21 | ✓ | 48 | 39 | 19 | 30 | 37.50 | does not enhance wound closure or epithelial cell migration to any great extent |  |  |  |  |  |  |  | Average (A560 nm) (Human dermal fibroblasts; 24 hours, peptide 50 μg/mL): 0.14; Average minus blank (A560 nm) (Human dermal fibroblasts; 24 hours, peptide 50 μg/mL): 0.06; Collagen (Human dermal fibroblasts; 24 hours, peptide 50 μg/mL, 100 μL medium sample): 4.5 µg; Average (A560 nm) (Human dermal fibroblasts; 48 hours, peptide 50 μg/mL): 0.15; Average minus blank (A560 nm) (Human dermal fibroblasts; 48 hours, peptide 50 μg/mL): 0.03; Collagen (μg) (Human dermal fibroblasts; 48 hours, peptide 50 μg/mL, 100 μL medium sample): 2.1* μg
2 | PGQP (PGQP-NH2) [H22] | 33 | 33 | 21 | 21 | ✓ |  |  |  |  |  |  | 0.14 | 0.06 | 3.3 | 0.09 | 0.03 | 2.1* μg |  | 
3 | KTTKS [H32, reference compound] |  |  | 12 | 12 |  |  |  |  |  |  |  | 0.07 | −0.01 |  | 0.08 | 0.02 | 1.2* μg | −0.5* μg | Released collagen (μg/mL) 24 h (Human dermal fibroblasts; [6]): 11 µg/mL; Average (A560 nm) (Human dermal fibroblasts; [7]): 0.10; Average minus blank (A560 nm) (Human dermal fibroblasts; [7]): 0.02; Collagen (μg) (Human dermal fibroblasts; [7]): 1.1* μg; Collagen produced (μg/mL) 24 hrs (Human dermal fibroblasts; [Peptide] 0.3 μg/mL): 11 µg/mL; Released collagen (μg/mL) 48 h (Human dermal fibroblasts; [6]): 22 µg/mL; Average (A560 nm) (Human dermal fibroblasts; [8]): 0.10; Average minus blank (A560 nm) (Human dermal fibroblasts; [8]): 0.04; Collagen (μg) (Human dermal fibroblasts; [8]): 2.2* μg; Collagen produced (μg/mL) 48 hrs (Human dermal fibroblasts; [Peptide] 0.3 μg/mL): 22 µg/mL; Increase in collagen release at 48 h v. 24 h (Human dermal fibroblasts; check mark = yes, peptide 0.3 μg/mL): ✓
4 | PGNP (PGNP-NH2) [H30] | 9 | 9 | 20 | 20 |  |  |  |  |  |  |  | 0.10 | 0.02 |  | 0.09 | 0.03 | 2.0* μg | 0.9* μg | Increase in collagen release at 48 h v. 24 h (Human dermal fibroblasts; [3]): ✓
5 | PGPP (Synthetic Peptide H26) | 29 | 29 | 35 | 35 |  | 25 | 12 | 52 | 2.75 | 89 | significantly induces wound closure | 0.13 | 0.05 | 2.9 | 0.12 | 0.06 |  |  | Collagen (Human dermal fibroblasts; [5]): 3.5 µg; Significant release of collagen at 24 h and 48 h (Human dermal fibroblasts; check mark = yes, 25 μg/mL considered significant, peptide 50 μg/mL): ✓; wound closure in fibroblast monolayer (in words) [2]: does not induce wound closure

Reference: patent US10376557B2, “Peptide fragments for inducing synthesis of extracellular matrix proteins” (HELIX BIOMEDIX, INC., priority 2006, dated 2019)
